Molecules are shown by their SMILES. ≈ marks a conversion by molar mass, not a printed value. Like-named read-outs stand apart in the source and are kept apart here. Some results are limits rather than exact numbers.

The subject of assay [1] is Mycobacterium smegmatis mc2155. Nature of the assay: Anti-mycobacterial activity of nitazoxanides, MIC in Middlebrook 7H9. The assay is classed as cell-based. As to conditions: Middlebrook 7H9, 37° C. As to the method:
(§1) (1) Strains: Mycobacterium smegmatis mc2155, Mycobacterium chelonae EOP-1, Mycobacterium marinum ATCC 927, Mycobacterium avium Va14(T), and Mycobacterium abscessus AAy-P-1).
(§2) (2) Medium: Middlebrook 7H9 containing 0.5% (vol/vol) glycerol and 10% (vol/vol) oleic acid-albumin.
(§3) (3) Incubation Temperature: 37° C., except M. marinum 30° C.
(§4) (4) Nitazoxanides: Precipitates were present in wells of nitazoxanides with high concentrations (250-31 μg/mL) except for 162080, 162088, 16b2026, and 16b2031.
(5) Decolorization: Almost all the yellow nitazoxanides, namely 16b1090, 16b1092 and 16b1093, 16b1094, 16b2023, 16b2025, and 16b2026 were decolorized by M. smegmatis strain mc2155. None of the other mycobacterial strains decolorized the compounds. Note that the compound numbers are also referred to herein with the prefix VPC.
(§5) The strains used were Mycobacterium smegmatis mc2155, Mycobacterium chelonae EOP-1, Mycobacterium marinum ATCC 927, Mycobacterium avium Va14(T), and Mycobacterium abscessus AAy-P-1. The medium use was Middlebrook 7H9 containing 0.5% (vol/vol) glycerol and 10% (vol/vol) oleic acid-albumin. Incubation Temperature was 37° C., except for M. marinum at 30° C. For nitazoxanides, precipitates were present in wells of nitazoxanides with high concentrations (250-31 μg/mL) except for 162080, 162088, 16b2026, and 16b2031.
Decolorization: Almost all the yellow nitazoxanides, namely 16b1090, 16b1092 and 16b1093, 16b1094, 16b2023, 16b2025, and 16b2026 were decolorized by M. smegmatis strain mc2155. None of the other mycobacterial strains decolorized the compounds.

For assay [2], the system named is Mycobacterium tuberculosis. As to conditions: agar proportion.
The next assay has as its system M. tuberculosis. Nature of the assay: microbe, parasite or virus in culture. The assay is classed as cell-based, Mycobacterium tuberculosis. Details: % Inhibit growth, H37Rv / % Inhibit growth, Susceptible / % Inhibit growth, MDR / % Inhibit growth, XDR / inhibition: dose or concentration left out as unconfirmed. As to conditions: agar proportion method.
In assay [3] the test system is Mycobacterium chelonae EOP-1. Nature of the assay: Anti-mycobacterial activity of nitazoxanides, MIC in Middlebrook 7H9. The assay is classed as cell-based. As to conditions: Middlebrook 7H9, 37° C. As to the method: as §1, §2, §3, §4, §5
Assay [4] concerns Mycobacterium marinum ATCC 927. The assay is described as above. The class given is cell-based. As to conditions: Middlebrook 7H9, 30° C. The procedure: as §1, §2, §3, §4, §5
In assay [5] the test system is Mycobacterium abscessus AAy-P-1. The assay is described as above. As to conditions: Middlebrook 7H9, 37° C. The assay is classed as cell-based. As to the method:
as §1, §2, §3, §4, §5

For assay [6], the system named is Mycobacterium avium Va14(T). Described as above. The assay is classed as cell-based. As to conditions: Middlebrook 7H9, 37° C. As to the method: as §1, §2, §3, §4, §5
In a further assay the test system is TB organisms. As to conditions: cited from earlier work.

As for `O=C(Nc1sc([N+](=O)[O-])cc1[N+](=O)[O-])c1cccc(C(F)(F)F)c1` [VPC16b1092], in assay [1], the “Minimal Inhibitory Concentration, M. smegmatis” value was 31 µg/mL. Also, the MIC was found to be 2000 µg/mL (≈ 5540 µM) in assay [2] (isolate 234 (MDR-TB)); 2000 µg/mL (≈ 5540 µM) in assay [2] (isolate 283 (susceptible)); 2000 µg/mL (≈ 5540 µM) in assay [2] (isolate 565 (MDR-TB)); 1000 µg/mL (≈ 2770 µM) in assay [2] (isolate 694 (MDR-TB)); 2000 µg/mL (≈ 5540 µM) in assay [2] (isolate 750 (MDR-TB)); 2000 µg/mL (≈ 5540 µM) in assay [2] (isolate 823 (XDR-TB)). Besides, the MIC in assay [2] (isolate 971 (MDR-TB)) and in assay [2] (isolate H37Rv (Reference)) was 2000 µg/mL (≈ 5540 µM) each time. The “% Inhibit growth, MDR” value with M. tuberculosis (MDR strain) is given as 100%. For the same molecule, the “% Inhibit growth, Susceptible” value with M. tuberculosis (Susceptible strain) was 100%. Also, the “% Inhibit growth, XDR” value in the assay with M. tuberculosis (XDR strain) worked out at 100%. For the same molecule, the “Potency against M. tuberculosis in words (Table 1)” value with M. tuberculosis is given as “most potent”. The “% Inhibit growth, H37Rv” value with M. tuberculosis (strain H37Rv) came out at 100%. Also, the “Minimal Inhibitory Concentration, M. chelonae” value in assay [3] was determined as 4 µg/mL. In addition, the “Minimal Inhibitory Concentration, M. marinum” value in assay [4] turned out to be 4 µg/mL. The “Minimal Inhibitory Concentration, M. abscessus” value in assay [5] came out at 0.25 µg/mL. Also, the “Minimal Inhibitory Concentration, M. avium” value in assay [6] worked out at 8 µg/mL.

For `CC(=O)Oc1ccccc1C(=O)Nc1ncc([N+](=O)[O-])s1` [Nitazoxanide, 2-(acetyloxy)-N-(5-nitro-2-thiazolyl)benzamide, reference compound], the “Action against TB in presence of proteins found in serum” value with TB organisms is “inhibited by proteins that would be found in serum”. Besides, the MIC in assay [1] (Mycolicibacterium smegmatis, MC2155, read-out: Minimal Inhibitory Concentration, M. smegmatis) is more than 250 µg/mL; in assay [3] (read-out: Minimal Inhibitory Concentration, M. chelonae), 63 µg/mL (≈ 205 µM); in assay [4] (Mycobacterium marinum, ATCC927, read-out: Minimal Inhibitory Concentration, M. marinum), 31 µg/mL (≈ 101 µM); in assay [5] (Mycobacteroides abscessus, AAYP1, read-out: Minimal Inhibitory Concentration, M. abscessus), 63 µg/mL (≈ 205 µM); in assay [6] (Mycobacterium avium, read-out: Minimal Inhibitory Concentration, M. avium), 250 µg/mL (≈ 814 µM).

Source of the values: US9333193B2, “Compositions and methods for treating tuberculosis” (priority 2010, dated 2016).
